Earlier results in PubChem BioAssay AID1259409 (Chemical Carcinogenesis Research Information System (CCRIS), 2018).

Test system: rodent chemically induced tumor inhibition, incidence and multiplicity
Experiment: CCRIS tumor inhibitor studies

O=c1cc(-c2ccccc2)oc2c1ccc1ccccc12
tumour outcome (control, treated, inhibition, significance) (Carcinogen: 2-AMINO-1-METHYL-6-PHENYLIMIDAZO[4,5-B]PYRIDINE [105650-23-5], Dose [Inhibitor]: 1,000 PPM IN DIET FOR 4 WK BEGINNING WK PRIOR TO FIRST CARCINOGEN DOSE (STUDY DURATION: 25 WK), Route [Inhibitor]: ORAL, Species: RAT, Strain/Sex: SPRAGUE-DAWLEY/FEMALE, Target Tissue: Type of Lesion: MAMMARY GLAND: FIBROADENOMA OR DUCTAL CARCINOMA, Dose [Carcinogen]: 85 MG/KG BW 2/WK FOR 4 WK (STUDY DURATION: 25 WK), Promoter: NONE): 63%, 36%, 42%, not significant | tumour outcome (control, treated, inhibition, significance) (Carcinogen: 6-HYDROXYMETHYLBENZO[A]PYRENE, 21247-98-3, Dose [Inhibitor]: 100 UG IN 0.2 ML ACETONE ONCE 5 MINUTES BEFORE CARCINOGEN TREATMENT (STUDY DURATION: 31 WK), Route [Inhibitor]: DERMAL, Species: MOUSE, Strain/Sex: CD-1/FEMALE, Target Tissue: Type of Lesion: SKIN: PAPILLOMA, Dose [Carcinogen]: 400 NMOL IN 0.2 ML ACETONE ONCE, Promoter: 12-O-TETRADECANOYLPHORBOL-13-ACETATE, 16561-29-8): 57%, 60%, -5%, not calculated | tumour outcome (control, treated, inhibition, significance) (Carcinogen: 6-METHYLBENZO[A]PYRENE, 2381-39-7, Dose [Inhibitor]: 100 UG IN 0.2 ML ACETONE ONCE 5 MINUTES BEFORE CARCINOGEN TREATMENT (STUDY DURATION: 31 WK), Route [Inhibitor]: DERMAL, Species: MOUSE, Strain/Sex: CD-1/FEMALE, Target Tissue: Type of Lesion: SKIN: PAPILLOMA, Dose [Carcinogen]: 400 NMOL IN 0.2 ML ACETONE ONCE, Promoter: 12-O-TETRADECANOYLPHORBOL-13-ACETATE, 16561-29-8): 73%, 40%, 44%, not calculated | tumour outcome (control, treated, inhibition, significance) (Carcinogen: 7,12-DIMETHYLBENZ[A]ANTHRACENE, 57-97-6, Dose [Inhibitor]: 0, 0.37 NMOL IN 0.2 ML ACETONE APPLIED 5 MIN PRIOR TO CARCINOGEN (STUDY DURATION: 21 WK), Route [Inhibitor]: DERMAL, Species: MOUSE, Strain/Sex: SENCAR/FEMALE, Target Tissue: Type of Lesion: SKIN: PAPILLOMA, Dose [Carcinogen]: 40 NMOL IN 0.2 ML ACETONE ONCE, Promoter: 12-O-TETRADECANOYLPHORBOL-13-ACETATE, 16561-29-8): 100%, 100%, 0% | tumour outcome (control, treated, inhibition, significance) (Carcinogen: 7,12-DIMETHYLBENZ[A]ANTHRACENE, 57-97-6, Dose [Inhibitor]: 0, 3.7 NMOL IN 0.2 ML ACETONE APPLIED 5 MIN PRIOR TO CARCINOGEN (STUDY DURATION: 21 WK), Route [Inhibitor]: DERMAL, Species: MOUSE, Strain/Sex: SENCAR/FEMALE, Target Tissue: Type of Lesion: SKIN: PAPILLOMA, Dose [Carcinogen]: 40 NMOL IN 0.2 ML ACETONE ONCE, Promoter: 12-O-TETRADECANOYLPHORBOL-13-ACETATE, 16561-29-8): 100%, 100%, 0% | tumour outcome (control, treated, inhibition, significance) (Carcinogen: 7,12-DIMETHYLBENZ[A]ANTHRACENE, 57-97-6, Dose [Inhibitor]: 0, 37 NMOL IN 0.2 ML ACETONE APPLIED 5 MIN PRIOR TO CARCINOGEN (STUDY DURATION: 21 WK), Route [Inhibitor]: DERMAL, Species: MOUSE, Strain/Sex: SENCAR/FEMALE, Target Tissue: Type of Lesion: SKIN: PAPILLOMA, Dose [Carcinogen]: 10 NMOL IN 0.2 ML ACETONE ONCE, Promoter: 12-O-TETRADECANOYLPHORBOL-13-ACETATE, 16561-29-8): 79%, 60%, 24%, not calculated | tumour outcome (control, treated, inhibition, significance) (Carcinogen: 7,12-DIMETHYLBENZ[A]ANTHRACENE, 57-97-6, Dose [Inhibitor]: 0, 37 NMOL IN 0.2 ML ACETONE APPLIED 5 MIN PRIOR TO CARCINOGEN (STUDY DURATION: 21 WK), Route [Inhibitor]: DERMAL, Species: MOUSE, Strain/Sex: SENCAR/FEMALE, Target Tissue: Type of Lesion: SKIN: PAPILLOMA, Dose [Carcinogen]: 40 NMOL IN 0.2 ML ACETONE ONCE, Promoter: 12-O-TETRADECANOYLPHORBOL-13-ACETATE, 16561-29-8): 100%, 87%, 13%, not calculated | tumour outcome (control, treated, inhibition, significance) (Carcinogen: 7,12-DIMETHYLBENZ[A]ANTHRACENE, 57-97-6, Dose [Inhibitor]: 0, 370 NMOL IN 0.2 ML ACETONE APPLIED 5 MIN PRIOR TO CARCINOGEN (STUDY DURATION: 21 WK), Route [Inhibitor]: DERMAL, Species: MOUSE, Strain/Sex: SENCAR/FEMALE, Target Tissue: Type of Lesion: SKIN: PAPILLOMA, Dose [Carcinogen]: 10 NMOL IN 0.2 ML ACETONE ONCE, Promoter: 12-O-TETRADECANOYLPHORBOL-13-ACETATE, 16561-29-8): 79%, 46%, 42%, not calculated | tumour outcome (control, treated, inhibition, significance) (Carcinogen: 7,12-DIMETHYLBENZ[A]ANTHRACENE, 57-97-6, Dose [Inhibitor]: 0, 370 NMOL IN 0.2 ML ACETONE APPLIED 5 MIN PRIOR TO CARCINOGEN (STUDY DURATION: 21 WK), Route [Inhibitor]: DERMAL, Species: MOUSE, Strain/Sex: SENCAR/FEMALE, Target Tissue: Type of Lesion: SKIN: PAPILLOMA, Dose [Carcinogen]: 40 NMOL IN 0.2 ML ACETONE ONCE, Promoter: 12-O-TETRADECANOYLPHORBOL-13-ACETATE, 16561-29-8): 100%, 97%, 3%, not calculated | tumour outcome (control, treated, inhibition, significance) (Carcinogen: 7,12-DIMETHYLBENZ[A]ANTHRACENE, 57-97-6, Dose [Inhibitor]: 25 UG/MOUSE APPLIED 6 HR BEFORE, 5 MIN BEFORE, AND 6 HR AFTER DMBA (STUDY DURATION: 28 WK), Route [Inhibitor]: DERMAL, Species: MOUSE, Strain/Sex: CD-1/FEMALE, Target Tissue: Type of Lesion: SKIN: PAPILLOMA, Dose [Carcinogen]: 2.56 UG APPLIED ONCE 5 MIN AFTER INHIBITOR, Promoter: 12-O-TETRADECANOYLPHORBOL-13-ACETATE, 16561-29-8): 82%, 22%, 73%, not calculated | tumour outcome (control, treated, inhibition, significance) (Carcinogen: 7,12-DIMETHYLBENZ[A]ANTHRACENE, 57-97-6, Dose [Inhibitor]: 25 UG/MOUSE APPLIED ONCE 5 MIN BEFORE DMBA (STUDY DURATION: 28 WK), Route [Inhibitor]: DERMAL, Species: MOUSE, Strain/Sex: CD-1/FEMALE, Target Tissue: Type of Lesion: SKIN: PAPILLOMA, Dose [Carcinogen]: 2.56 UG APPLIED ONCE 5 MIN AFTER INHIBITOR, Promoter: 12-O-TETRADECANOYLPHORBOL-13-ACETATE, 16561-29-8): 82%, 48%, 41%, not calculated | tumour outcome (control, treated, inhibition, significance) (Carcinogen: 7,12-DIMETHYLBENZ[A]ANTHRACENE, 57-97-6, Dose [Inhibitor]: 100 UG IN 0.2 ML ACETONE ONCE 5 MIN BEFORE CARCINOGEN TREATMENT (STUDY DURATION: 31 WK), Route [Inhibitor]: DERMAL, Species: MOUSE, Strain/Sex: CD-1/FEMALE, Target Tissue: Type of Lesion: SKIN: PAPILLOMA, Dose [Carcinogen]: 10 NMOL IN 0.2 ML ACETONE ONCE, Promoter: 12-O-TETRADECANOYLPHORBOL-13-ACETATE, 16561-29-8): 90%, 38%, 58%, not calculated
